Data: patent publication US20210261512A1, “NOVEL COMPOUNDS” (INFLAZOME LIMITED, priority 2018, published 2021)

What was measured:
NLRP3 [1] = biological target: T1, NLRP3 (Homo sapiens, UniProt Q96P20); assay: Human whole blood IL1β release assay; type: cell-based; conditions: LPS 1 μg/ml, nigericin 10 μM, IL-1β AlphaLisa, 10 μM top dose (Example 2: top dose of 30 μM), read-out: HWB IC50
Method: For systemic delivery, the ability to inhibit NLRP3 when the compounds are present within the bloodstream is of great importance. For this reason, the NLRP3 inhibitory activity of a number of compounds in human whole blood was investigated in accordance with the following protocol.
Human whole blood in sodium-heparin or lithium-heparin tubes was obtained from healthy donors from a volunteer donor panel. • 1. Plate out 80 μl of whole blood containing 1 μg/ml of LPS in 96-well, clear bottom cell culture plate (Corning #3585) • 2. Add 10 μl compound (8 points half-log dilution with 10 μM top dose, unless stated otherwise) or vehicle (DMSO 0.1% FAC) to the appropriate wells • 3. Incubate for 3 hrs at 37° C., 5% CO2 • 4. Add 10 μl nigericin (Sigma #N7143) (10 μM FAC) to all wells • 5. Incubate for 1 hr at 37° C., 5% CO2 • 6. At the end of the incubation period, spin plates at 300×g for 5 mins to pellet cells and remove 20 μl of supernatant and add to 96-well v-bottom plates for IL-1β analysis (note: these plates containing the supernatants can be stored at −80° C. to be analysed at a later date) • 7. IL-1β was measured according to the manufacturer protocol (Perkin Elmer-AlphaLisa IL-1 Kit AL220F-5000) • 8. IC50 data is fitted to a non-linear regression equation (log inhibitor vs response-variable slope 4-parameters)

NLRP3 [2] = biological target: T1, NLRP3; assay: THP-1 cells pyroptosis assay; type: cell-based; design: Seed THP-1 cells (25,000 cells/well) containing 1.0 μg/ml LPS; host or cells: THP-1; conditions: LPS 1.0 μg/ml, nigericin 5 μM, resazurin readout, 10 μM top dose (Example 2: top dose of 30 μM)
Procedure, shortened: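 THP-1 cells (25,000/well) primed with 1 μg/ml LPS in serum-free RPMI, treated with compound (8-point dilution, 10 μM top unless stated; 0.1% DMSO) 3 h at 37°C, then nigericin 5 μM 1 h. Viability read by resazurin (100 μM, 1-2 h) fluorescence; IC50 from 4-parameter fit.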

[3] = PK, intravenous administration; type: in vivo; conditions: rat, plasma, male Sprague Dawley rats, dose about 1 mg/kg; for Vd: read-out: Vdss
Method: Pharmacokinetic parameters were determined in male Sprague Dawley rats (Vital River Laboratory Animal Technology Co Ltd, Beijing, China, 6-9 weeks old). Animals were maintained under a 12 h light/dark cycle. Animals had free access to food and water, except that orally dosed animals were food deprived overnight prior to the study.
For intravenous administration, compounds were formulated as a solution (in DMSO:water [10:90] or in DMSO:PBS [10:90]) in 2 mL/kg dosing volume and administered via tail vein. For oral administration, compounds were formulated as a solution (in 0.5% methylcellulose in water) in […] dosing volume and administered orally.
Serial blood samples (about 200 μL) were taken from each animal at each of 8 time-points post dose ([…], 0.25, 0.5, 1, 2, 4, 8 and 24 h). Samples were held on ice for no longer than 30 minutes before centrifugation (5,696 rpm (3,000 g) for 15 minutes) for plasma generation. Plasma was frozen on dry ice prior to bioanalysis. PK parameters were generated from LC-MS/MS data using Phoenix WinNonlin 6.3 software.

T1 sequence (Q96P20 whole entry): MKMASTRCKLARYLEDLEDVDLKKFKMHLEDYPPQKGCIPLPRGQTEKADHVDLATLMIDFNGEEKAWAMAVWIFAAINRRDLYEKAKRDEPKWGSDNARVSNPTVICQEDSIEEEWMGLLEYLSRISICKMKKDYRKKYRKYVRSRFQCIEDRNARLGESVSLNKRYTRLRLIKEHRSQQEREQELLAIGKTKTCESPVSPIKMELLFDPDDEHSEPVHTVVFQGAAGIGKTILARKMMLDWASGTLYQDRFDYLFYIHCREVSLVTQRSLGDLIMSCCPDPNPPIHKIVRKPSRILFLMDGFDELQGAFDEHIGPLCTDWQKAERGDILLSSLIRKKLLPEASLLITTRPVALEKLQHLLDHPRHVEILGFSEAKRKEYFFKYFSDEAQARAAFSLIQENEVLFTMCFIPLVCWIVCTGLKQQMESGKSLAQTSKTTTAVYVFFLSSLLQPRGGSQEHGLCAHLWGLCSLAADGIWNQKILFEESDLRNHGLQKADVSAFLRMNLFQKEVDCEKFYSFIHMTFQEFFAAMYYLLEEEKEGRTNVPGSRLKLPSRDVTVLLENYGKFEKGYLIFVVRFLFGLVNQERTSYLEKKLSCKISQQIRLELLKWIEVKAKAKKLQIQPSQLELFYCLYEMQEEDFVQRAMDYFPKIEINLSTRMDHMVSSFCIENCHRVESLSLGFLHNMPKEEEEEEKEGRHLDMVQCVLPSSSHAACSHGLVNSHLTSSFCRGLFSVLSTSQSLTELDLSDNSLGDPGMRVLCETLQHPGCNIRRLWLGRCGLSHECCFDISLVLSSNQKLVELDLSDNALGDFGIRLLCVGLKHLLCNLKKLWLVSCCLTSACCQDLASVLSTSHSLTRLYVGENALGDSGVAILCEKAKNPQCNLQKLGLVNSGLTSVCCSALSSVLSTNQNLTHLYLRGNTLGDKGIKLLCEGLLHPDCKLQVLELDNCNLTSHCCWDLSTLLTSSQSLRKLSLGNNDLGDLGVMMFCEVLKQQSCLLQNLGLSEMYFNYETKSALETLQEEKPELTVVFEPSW

Row | Molecule | IC50 (NLRP3 [1]) [µM] | IC50 (NLRP3 [2]) [µM] | AUC [3] [ng·h/mL] | clearance [3] [mL/min/kg] | half-life [3] [min] | Vd [3] [L/kg]
1 | O=S(=O)(Cc1ccccc1)c1nnc(Nc2c3c(cc4c2CCC4)CCC3)[nH]1 [Example 2, 5-(benzylsulfonyl)-N-(1,2,3,5,6,7-hexahydro-s-indacen-4-yl)-4H-1,2,4-triazol-3-amine] | ≤ 30 | ≤ 10 | – | – | – | –
2 | CC(c1cc(S(=O)(=O)c2nnc(Nc3c4c(cc5c3CCC5)CCC4)[nH]2)nn1C)N(C)C (stereo not shown) [Example 5, 5-((5-(1-(dimethylamino)ethyl)-1-methyl-1H-pyrazol-3-yl)sulfonyl)-N-(1,2,3,5,6,7-hexahydro-s-indacen-4-yl)-4H-1,2,4-triazol-3-amine] | ≤ 10 | ≤ 0.5 | – | – | – | –
3 | COC1(c2cc(S(=O)(=O)c3nnc(Nc4c5c(cc6c4CCC6)CCC5)[nH]3)nn2C)COC1 [Example 12, N-(1,2,3,5,6,7-hexahydro-s-indacen-4-yl)-5-((5-(3-methoxyoxetan-3-yl)-1-methyl-1H-pyrazol-3-yl)sulfonyl)-4H-1,2,4-triazol-3-amine] | ≤ 10 | ≤ 1 | – | – | – | –
4 | COC(C)(C)Cn1ccc(S(=O)(=O)c2nnc(Nc3c4c(cc5c3CCC5)CCC4)[nH]2)n1 [Example 18, N-(1,2,3,5,6,7-hexahydro-s-indacen-4-yl)-5-((1-(2-methoxy-2-methylpropyl)-1H-pyrazol-3-yl)sulfonyl)-4H-1,2,4-triazol-3-amine] | ≤ 10 | ≤ 0.5 | – | – | – | –
5 | O=S(=O)(c1ccccc1)c1nnc(Nc2c3c(cc4c2CCC4)CCC3)[nH]1 [Example 40, N-(1,2,3,5,6,7-hexahydro-s-indacen-4-yl)-5-(phenylsulfonyl)-1H-1,2,4-triazol-3-amine] | – | ≤ 1 | 1460 | 11.4 | 54 | 0.54
6 | Cn1cc(S(=O)(=O)c2nnc(Nc3c4c(cc5c3CCC5)CCC4)[nH]2)cn1 [Example 159, N-(1,2,3,5,6,7-hexahydro-s-indacen-4-yl)-5-((1-methyl-1H-pyrazol-4-yl)sulfonyl)-4H-1,2,4-triazol-3-amine] | – | ≤ 5 | 2250 | 6.9 | 55.8 | 0.38
7 | CN1CCC2(C1)CN(S(=O)(=O)c1nnc(Nc3c(-c4ccnc(OC(F)F)c4)ccc4c3CCC4)[nH]1)C2 [Example 213, N-(5-(2-(difluoromethoxy)pyridin-4-yl)-2,3-dihydro-1H-inden-4-yl)-5-((6-methyl-2,6-diazaspiro[3.4]octan-2-yl)sulfonyl)-4H-1,2,4-triazol-3-amine] | – | ≤ 0.5 | 186 | 90.6 | 43.8 | 4.21
8 | CN1CCC(Oc2cc(-c3ccc4c(c3Nc3nnc(S(C)(=O)=O)[nH]3)CCC4)ccn2)CC1 [Example 235, N-(5-(2-((1-methylpiperidin-4-yl)oxy)pyridin-4-yl)-2,3-dihydro-1H-inden-4-yl)-5-(methylsulfonyl)-4H-1,2,4-triazol-3-amine] | – | ≤ 10 | 430 | 38.7 | 130 | 0.935
9 | CS(=O)(=O)c1nnc(Nc2c(-c3ccnc(OC4CCCOC4)c3)ccc3c2CCC3)[nH]1 (stereo not shown) [Example 236, 5-(methylsulfonyl)-N-(5-(2-((tetrahydro-2H-pyran-3-yl)oxy)pyridin-4-yl)-2,3-dihydro-1H-inden-4-yl)-4H-1,2,4-triazol-3-amine] | – | ≤ 10 | 3160 | 5.28 | 53.5 | 0.149
10 | CN1CCOCC12CCN(S(=O)(=O)c1nnc(Nc3c4c(cc5c3CCC5)CCC4)[nH]1)CC2 [Example 296, N-(1,2,3,5,6,7-hexahydro-s-indacen-4-yl)-5-((1-methyl-4-oxa-1,9-diazaspiro[5.5]undecan-9-yl)sulfonyl)-4H-1,2,4-triazol-3-amine] | – | ≤ 0.5 | 315 | 52.9 | 35.4 | 1.7
11 | Cc1cc(-c2cc(F)cc(C(C)C)c2Nc2nnc(S(=O)(=O)N3CCC(N(C)C)CC3)[nH]2)ccn1 [Example 302, 1-((5-((4-fluoro-2-isopropyl-6-(2-methylpyridin-4-yl)phenyl)amino)-1H-1,2,4-triazol-3-yl)sulfonyl)-N,N-dimethylpiperidin-4-amine] | – | ≤ 5 | 153 | 109 | 80.4 | 4.03
12 | COc1cc(-c2ccc3c(c2Nc2nnc(S(=O)(=O)c4ccccc4C#N)[nH]2)CCC3)ccn1 [Example 310, 2-((5-((5-(2-methoxypyridin-4-yl)-2,3-dihydro-1H-inden-4-yl)amino)-4H-1,2,4-triazol-3-yl)sulfonyl)benzonitrile] | – | ≤ 5 | 221 | 75.4 | 27.5 | 1.45
13 | CC(C)n1ccc(S(=O)(=O)c2nnc(Nc3c4c(cc5c3CCC5)CCC4)[nH]2)n1 [Example 337, N-(1,2,3,5,6,7-hexahydro-s-indacen-4-yl)-5-((1-isopropyl-1H-pyrazol-3-yl)sulfonyl)-4H-1,2,4-triazol-3-amine] | – | ≤ 0.5 | 981 | 17 | 35.7 | 0.54
14 | Cc1cc2c(c(Nc3nnc(S(C)(=O)=O)[nH]3)c1-c1ccnc(O[C@H]3CC[C@H](N(C)C)CC3)c1)CCC2 [Example 365, N-(5-(2-(((1r,4r)-4-(dimethylamino)cyclohexyl)oxy)pyridin-4-yl)-6-methyl-2,3-dihydro-1H-inden-4-yl)-5-(methylsulfonyl)-4H-1,2,4-triazol-3-amine] | – | ≤ 5 | – | – | – | –
15 | O=S(=O)(c1cccc(OC(F)(F)F)c1)c1nnc(Nc2c3c(cc4c2CCC4)CCC3)[nH]1 [Example 367, N-(1,2,3,5,6,7-hexahydro-s-indacen-4-yl)-5-((3-(trifluoromethoxy)phenyl)-sulfonyl)-4H-1,2,4-triazol-3-amine] | – | ≤ 5 | – | – | – | –
16 | Cc1cc2c(c(Nc3nnc(S(C)(=O)=O)[nH]3)c1-c1ccnc(OC3CCNCC3)c1)CCC2 [Example 368, N-(6-methyl-5-(2-(piperidin-4-yloxy)pyridin-4-yl)-2,3-dihydro-1H-inden-4-yl)-5-(methylsulfonyl)-4H-1,2,4-triazol-3-amine] | – | ≤ 5 | – | – | – | –
17 | CC(C)c1cc(F)cc(-c2ccnc(OC3CCN(C)CC3)c2)c1Nc1nnc(S(C)(=O)=O)[nH]1 [Example 369, N-(4-fluoro-2-isopropyl-6-(2-((1-methylpiperidin-4-yl)oxy)pyridin-4-yl)phenyl)-5-(methylsulfonyl)-4H-1,2,4-triazol-3-amine] | – | ≤ 5 | – | – | – | –
18 | CNS(=O)(=O)c1nnc(Nc2c3c(cc4c2CCC4)CCC3)[nH]1 [Example 371, 5-((1,2,3,5,6,7-hexahydro-s-indacen-4-yl)amino)-N-methyl-4H-1,2,4-triazole-3-sulfonamide] | – | ≤ 5 | – | – | – | –
19 | COc1cc(-c2ccc3c(c2Nc2nnc(S(=O)(=O)c4ccccc4)[nH]2)CCC3)ccn1 [Example 372, N-(5-(2-methoxypyridin-4-yl)-2,3-dihydro-1H-inden-4-yl)-5-(phenylsulfonyl)-1H-1,2,4-triazol-3-amine] | – | ≤ 5 | – | – | – | –
20 | CCN(CC)CCS(=O)(=O)Cc1nnc(Nc2c3c(cc4c2CCC4)CCC3)[nH]1 [Example 373, 5-(((2-(diethylamino)ethyl)sulfonyl)methyl)-N-(1,2,3,5,6,7-hexahydro-s-indacen-4-yl)-4H-1,2,4-triazol-3-amine] | – | ≤ 10 | – | – | – | –
21 | (E)-1-(8-((5-((4-(dimethylamino)piperidin-1-yl)sulfonyl)-4H-1,2,4-triazol-3-yl)amino)-1,2,3,5,6,7-hexahydro-s-indacen-4-yl)ethan-1-one oxime and (Z)-1-(8-((5-((4-(dimethylamino)piperidin-1-yl)sulfonyl)-4H-1,2,4-triazol-3-yl)amino)-1,2,3,5,6,7-hexahydro-s-indacen-4-yl)ethan-1-one oxime [Example 309] | – | ≤ 5 | – | – | – | –
